Source: patent publication US7022696B2, “Piperazino-derivatives and their use as PDE4 inhibitor” (Altana Pharma AG, priority 2001, dated 2006)
Structures can show the parent of a compound that is named as a salt.

Row | SMILES | melting point
1 | CCOC(=O)N1CCN(C(=O)c2ccc(N3N=C(c4ccc(OCC)c(OCC)c4)[C@H]4CC=CC[C@H]4C3=O)cc2)CC1 [Compound 7, 4-(1-{4-[(4aS,8aR)-4-(3,4-Diethoxyphenyl)-1-oxo-4a,5,8,8a-tetrahydro-1H-phthalazin-2-yl]-phenyl}-methanoyl)-piperazine-1-carboxylic acid ethyl ester] | 146 to 147 °C
2 | CCOc1ccc(C2=NN(c3ccc(C(=O)N4CCN(C=O)CC4)cc3)C(=O)[C@@H]3CC=CC[C@H]23)cc1OCC [Compound 5, 4-(1-{4-[(4aS,8aR)-4-(3,4-Diethoxyphenyl)-1-oxo-4a,5,8,8a-tetrahydro-1H-phthalazin-2-yl]-phenyl}-methanoyl)-piperazine-1-carbaldehyde] | 143 to 144 °C
3 | COc1ccc(C2=NN(Cc3ccc(C(=O)N4CCN(c5cnccn5)CC4)cc3)C(=O)[C@H]3CC=CC[C@@H]23)c2c1OC(C)(C)C2.Cl.Cl (relative stereo) | 124 to 126 °C
4 | COc1ccc(C2=NN(c3ccc(C(=O)N4CCN(CC(=O)N5CCCC5)CC4)cc3)C(=O)[C@@H]3CC=CC[C@H]23)cc1OC.Cl | 160 to 161 °C
5 | COc1ccc(C2=NN(c3ccc(C(=O)N4CCN(CC(=O)N5CCOCC5)CC4)cc3)C(=O)[C@@H]3CC=CC[C@H]23)cc1OC.Cl | 168 to 169 °C
6 | CCOc1ccc(C2=NN(c3ccc(C(=O)N4CCN(c5ccccn5)CC4)cc3)C(=O)[C@@H]3CC=CC[C@H]23)cc1OCC [Compound 2, (4aS,8aR)-4-(3,4-Diethoxyphenyl)-2-{4-[1-(4-pyridin-2-yl-piperazin-1-yl)-methanoyl]-phenyl}-4a,5,8,8a-tetrahydro-2H-phthalazin-1-one] | 183 to 184 °C
7 | CCOc1ccc(C2=NN(c3ccc(S(=O)(=O)N4CCN(c5ccccn5)CC4)cc3)C(=O)[C@H]3CC=CC[C@@H]23)cc1OCC (relative stereo) [Compound 6, (cis)-4-(3,4-Diethoxyphenyl)-2-[4-(4-pyridin-2-yl-piperazine-1-sulfonyl)-phenyl]-4a,5,8,8a-tetrahydro-2H-phthalazin-1-one] | 181 to 182 °C
8 | COc1ccc(C2=NN(Cc3ccc(C(=O)N4CCN(CCCN(C)C)CC4)cc3)C(=O)[C@H]3CC=CC[C@@H]23)c2c1OC(C)(C)C2.Cl.Cl (relative stereo) | 247 to 249 °C

More lines, now with the values ahead:

Row | melting point | SMILES
9 | 271 °C (dec.) | COc1ccc(C2=NN(c3ccc(C(=O)N4CCN(CCN5CCOCC5)CC4)cc3)C(=O)[C@@H]3CC=CC[C@H]23)c2c1OC(C)(C)C2.Cl.Cl [Compound 20, (4aS,8aR)-4-(7-Methoxy-2,2-dimethyl-2,3-dihydro-benzofuran-4-yl)-2-(4-{1-[4-(2-morpholin-4-yl-ethyl)-piperazin-1-yl]-methanoyl}-phenyl)-4a,5,8,8a-tetrahydro-2H-phthalazin-1-one dihydrochloride]
10 | 137 to 139 °C | COc1ccc(C2=NN(c3ccc(C(=O)N4CCN(c5c(Cl)cncc5Cl)CC4)cc3)C(=O)[C@@H]3CC=CC[C@H]23)cc1OC [Compound 15, (4aS,8aR)-2-(4-{1-[4-(3,5-Dichloropyridin-4-yl)-piperazin-1-yl]-methanoyl}-phenyl)-4-(3,4-dimethoxyphenyl)-4a,5,8,8a-tetrahydro-2H-phthalazin-1-one]
11 | 203 to 206 °C (dec.) | CCOc1ccc(C2=NN(c3ccc(C(=O)N4CCN(c5cc(C)nc6ccccc56)CC4)cc3)C(=O)[C@@H]3CC=CC[C@H]23)cc1OCC.Cl [Compound 26, (4aS,8aR)-4-(3,4-Diethoxy-phenyl)-2-(4-{1-[4-(2-methyl-quinolin-4-yl)-piperazin-1-yl]-methanoyl}-phenyl)-4a,5,8,8a-tetrahydro-2H-phthalazin-1-one hydrochloride]
12 | 185 to 186 °C | COc1ccc(C2=NN(c3ccc(C(=O)N4CCN(c5ccccc5)CC4)cc3)C(=O)[C@@H]3CC=CC[C@H]23)c2c1OC(C)(C)C2 [Compound 10, (4aS,8aR)-4-(7-Methoxy-2,2-dimethyl-2,3-dihydro-benzofuran-4-yl)-2-{4-[1-(4-phenyl-piperazin-1-yl)-methanoyl]-phenyl}-4a,5,8,8a-tetrahydro-2H-phthalazin-1-one]
13 | 164 to 167 °C | CCOc1ccc(C2=NN(c3ccc(C(=O)N4CCN(c5ccncc5)CC4)cc3)C(=O)[C@@H]3CC=CC[C@H]23)cc1OCC.Cl [Compound 27, (4aS,8aR)-4-(3,4-Diethoxy-phenyl)-2-{4-[1-(4-pyridin-4-yl-piperazin-1-yl)-methanoyl]-phenyl}-4a,5,8,8a-tetrahydro-2H-phthalazin-1-one hydrochloride]
14 | 245 °C (dec.) | COc1ccc(C2=NN(c3ccc(C(=O)N4CCN(CCN(C)C)CC4)cc3)C(=O)C3CC=CCC23)c2c1OC(C)(C)C2 (as salt: hydrochloride) [Compound 14, (4aS,8aR)-2-{4-[4-(2-Dimethylamino-ethyl)-piperazine-1-carbonyl]-phenyl}-4-(7-methoxy-2,2-dimethy-2,3-dihydro-benzofuran-4-yl)-4a,5,8,8a-tetrahydro-2H-phthalazin-1-one dihydrochloride]
15 | 121 to 123 °C | CCOc1ccc(C2=NN(c3ccc(C(=O)N4CCN(c5ccc(C(F)(F)F)cn5)CC4)cc3)C(=O)[C@@H]3CC=CC[C@H]23)cc1OCC [Compound 29, (4aS,8aR)-4-(3,4-Diethoxy-phenyl)-2-(4-{1-[4-(5-trifluoromethyl-pyridin-2-yl)-piperazin-1-yl]-methanoyl}-phenyl)-4a,5,8,8a-tetrahydro-2H-phthalazin-1-one]
16 | 83 to 85 °C | CCOc1ccc(C2=NN(c3ccc(C(=O)N4CCN(Cc5ccncc5)CC4)cc3)C(=O)[C@@H]3CC=CC[C@H]23)cc1OCC.Cl.Cl [Compound 25, (4aS,8aR)-4-(3,4-Diethoxy-phenyl)-2-{4-[1-(4-pyridin-4-ylmethyl-piperazin-1-yl)-methanoyl]-phenyl}-4a,5,8,8a-tetrahydro-2H-phthalazin-1-one dihydrochloride]
